Series [1] is described as follows: Study 208-02: plasma CPX pharmacokinetics after IV and oral CPX-O and CPX-POM. It is filed as in vivo, male C57/Bl6 mice. The conditions noted are these: plasma CPX, mice, single 10 mg/kg IV. The text has this:
Study 208-02. Bioavailability of Ciclopirox Following Oral and Intravenous Administration of Ciclopirox-POM Prodrug in the Mouse. […] The objectives of this study were to characterize the rate and extent of CPX-POM metabolism and assess the feasibility of orally administered ciclopirox-POM prodrug in support of future cancer proof of principle studies.

Series [2] is described as follows: Study 11428: plasma CPX pharmacokinetics after IV CPX-POM, SQ CPX-POM and oral CPX-O. The conditions noted are these: plasma CPX, rats, single 30 mg/kg oral; for AUC: plasma, po. It is filed as in vivo, male Sprague-Dawley rats.
Source text: (§4) Intravenous CPX-POM was used as the reference in characterizing the bioavailability of ciclopirox following SQ ciclopirox-POM prodrug in this specie.
Series [3] can be described thus: Study 11429: plasma CPX pharmacokinetics after IV CPX-POM, SQ CPX-POM and oral CPX-O. It is filed as in vivo, male beagle dogs. The conditions noted are these: plasma CPX, dogs, single 9 mg/kg oral; for AUC: plasma, po, 9 mg/kg.
Source text: as §4
The conditions of series [4]: urine, rats, single 30 mg/kg oral.
For series [5] the following is noted: urine, dogs, single 9 mg/kg oral.
The conditions of series [6]: humans; oral; cited from earlier work.
For series [7] the following is noted: cited from earlier work.
For series [8], the system named is β-glucuronidase. The procedure:
Based on human excretion data [Kellner et al, Arzneimittel-Forschung. 31 (8A):1337-1353], as well as evidence that bladder cancer patients have increased glucuronidase activity in urine [Paigen, K., Peterson, J., Paigen B. (1984) Role of urinary β-glucuronidase activity in human bladder cancer. Cancer Res 44:3620-3623], we conducted in vitro metabolism studies to characterize the stability of ciclopirox glucuronide in urine (at a concentration of 150 μM) obtained from bladder cancer patients compared to control urine collected from healthy volunteers.

The test system of series [9] is 253JBV cells. Nature of the series: Cell proliferation, hexosaminidase assay. It is filed as cell-based, human. The settings on record: up to 72 h. As to the method: (§1) To determine the effect of CPX on bladder cancer cell proliferation in T24 (MIBC) and 253-JBV (NMIBC) cells, 5,000 cells per well were seeded on to 96-well plates and grown overnight. The cells were then treated with increasing doses of CPX in RPMI media containing 10% FBS. Analysis of cell proliferation after the treatment period was estimated by the hexosaminidase assay. Briefly, the medium was removed and hexosaminidase substrate solution in citrate buffer pH 5 (7.5 mM), p-nitrophenol-N-acetyl-beta-D-glucosaminidase (Sigma Aldrich) was added at 75 μL per well. The plate was incubated at 37° C. in 100% humidity for 30 minutes. The reaction was stopped with 112.5 μL of 50 mM glycine containing 5 mM of EDTA (pH 10.4). The absorbance was measured at 405 nm. Experiments were conducted at n=6, and then repeated at least three times. The data were analyzed as percent of control, where the control wells were treated with equivalent amounts of DMSO alone. For IC50 calculations, a plot between the drug concentration and hexosaminidase activity was generated and the data was fitted either linearly or exponentially. The best fit was used for further processing of data.
(§2) We determined and compared the effect of CPX with CPX-POM and CPX-glucuronide in vitro by performing proliferation assay. To determine the effect of CPX, CPX-POM and CPX-glucuronide on bladder cancer cell proliferation in T24 (MIBC) and 253-JBV (NMIBC) cells, 5,000 cells per well were seeded on to 96-well plates and grown overnight. The cells were then treated with increasing doses of CPX, CPX-POM and CPX-glucuronide in RPMI media containing 10% FBS. Analysis of cell proliferation after the treatment period was estimated by the hexosaminidase assay. Briefly, the medium was removed and hexosaminidase substrate solution in citrate buffer pH 5 (7.5 mM), p-nitrophenol-N-acetyl-beta-D-glucosaminidase (Sigma Aldrich) was added at 75 μL per well. The plate was incubated at 37° C. in 100% humidity for 30 minutes. The reaction was stopped with 112.5 μL of 50 mM glycine containing 5 mM of EDTA (pH 10.4). The absorbance was measured at 405 nm.
(§3) Experiments were conducted at n=6, and then repeated at least three times. The data were analyzed as percent of control, where the control wells were treated with equivalent amounts of DMSO alone. For IC50 so calculations, a plot between the drug concentration and hexosaminidase activity was generated and the data was fitted either linearly or exponentially.

Series [10] has as its system T24 cells. Nature of the series: Cell proliferation, hexosaminidase assay. It is filed as cell-based, human. The conditions noted are these: up to 72 h. As to the method:
as §1, §2, §3

The mark [11] stands for this setting: 150 μM CPX-G, six-hour incubation, pooled urine from six NMIBC patients.

Where “and” joins values, the source holds several entries; their conditions need not be identical. Identical values can stand only once. Like-named read-outs stand apart in the source and are kept apart here.

By MRT is commonly meant the average time that molecules of a dose stay in the body. Broadly, the Cmax is the highest concentration seen after dosing. Broadly, the Tmax is the time from dosing to the highest level. Usually half-life stands for the time needed for the level to fall by half in the phase considered. Read a low half-life as fast loss. In series [1] (male, C57/Bl6, mouse), `Cc1cc(C2CCCCC2)n(O)c(=O)c1` [CPX-O, ciclopirox olamine] gave a C0 of 11300 ng/mL, an MRT of 15.5 min and a clearance of 108 mL/min/kg. In addition, in series [1] (male, C57/Bl6, mouse, read-out: Vss), the Vd came out at 1.68 L/kg. Besides, in series [1], the “AUMC0∫^n” value was 358 ng*hr^2/mL, the “AUMC0∫^∞” value turned out to be 401 ng*hr^2/mL and the Vdz is 5.7 L/kg. Also, the AUC in series [2] (male, Sprague-Dawley, rat, 30 mg/kg, read-out: AUC0∫^n) stood at 211 ± 84.5 ng·h/mL. Besides, the AUC in [2] (male, Sprague-Dawley, rat, 30 mg/kg, read-out: AUC0∫^∞) worked out at 378 ± 140 ng·h/mL. Further, in series [2] (male, Sprague-Dawley, rat), the highest level (Cmax) was 373 ± 158 ng/mL, the Tmax is 15 ± 7.74 min and the half-life is 48.1 ± 33.5 min. The same molecule came in with a Kel in [2] of 1.234 ± 0.742 h⁻¹. In addition, the F in series [2] (reference IV CPX-POM, 30 mg/kg) was 4.6% and 4.56%. For the same molecule, the AUC in series [3] (male, beagle, dog, read-out: AUC0∫^n) was determined as 1900 ng·h/mL. Besides, in [3] (male, beagle, dog, read-out: AUC0∫^∞), the AUC is 2700 ng·h/mL. For the same molecule, in [3] (male, beagle, dog), the Cmax was 1020 ng/mL, the Tmax is 15 ± 7.74 min and the half-life was 331 ± 23.4 min. For the same molecule, the Kel in [3] stood at 0.126 ± 0.009 h⁻¹. Besides, in [4], the FeCPX is given as 0.25 ± 0.18%, the “Xe/dtCPX 0-8 hr” value turned out to be 0.63 ± 0.16 µg/h, the “Xe/dtCPX 8-24 hr” value was determined as 1.08 ± 1.11 µg/h and the “XeCPX 0-24 hr” value came out at 22.30 ± 16.65 µg. Moreover, in [4] (30 mg/kg), the “UCPX 0-24 hr” value was 1,711 ± 1,427 ng/mL and 8.28 ± 6.89 μM. Further, in series [5], the FeCPX worked out at 0.32 ± 0.21%, the “Xe/dtCPX 8-24 hr” value was found to be 2.90 ± 1.70 µg/h and the “XeCPX 0-24 hr” value amounted to 299 ± 208 µg. Also, the “UCPX 0-24 hr” value in series [5] (9 mg/kg) was 1,602 ± 750^ ng/mL and 7.74 ± 3.62 μM. In addition, in series [6], the “dose excreted in urine within 6 hours” value is 87%; the “dose excreted in urine within 12 hours” value was “approximately 95%”; the “dose in urine identified as ciclopirox” value was 4%; the “dose in urine identified as ciclopirox and ciclopirox glucuronide” value was 83%. Also, in series [6], the “dose in urine identified as ciclopirox glucuronide” value was 79%. Further, the tolerability result in series [7] (80 mg/m^2 oral, once daily) is given as “well tolerated”. In addition, the toxicity entry in series [7] (oral, four times daily) was “dose-limiting gastrointestinal toxicity”.

With `Cc1cc(C2CCCCC2)n(O[C@H]2OC(C(=O)O)[C@H](O)C(O)C2O)c(=O)c1` (stereo partly drawn) [CPX-G, ciclopirox glucuronide], the “ciclopirox formed by hydrolysis” value in series [8] (setting [11]) turned out to be 7.9 µM. Further, in [8] (setting [11]), the formation rate is 5%. Further, the “extent of ciclopirox formation, patient urine vs healthy volunteer urine” value in series [8] (bladder cancer patient urine compared to healthy volunteers) is recorded as “approximately 11.6 fold”. In series [8] (pooled bladder cancer patient urine vs control urine), the “rate of β-glucuronidase-mediated hydrolysis, patient urine vs control urine” value is listed as 5.6-11.5 fold. For the same molecule, the “effect on cell proliferation” value in series [9] and in series [10] was “did not show any significant effect” each time.

(Values after US20170304329A1 (THE UNIVERSITY OF KANSAS, priority 2014, published 2017).)
